Experimental data published in ChEMBL document CHEMBL4145689, “Tailoring the Substitution Pattern on 1,3,5-Triazine for Targeting Cyclooxygenase-2: Discovery and Structure-Activity Relationship of Triazine-4-Aminophenylmorpholin-3-one Hybrids that Reverse Algesia and Inflammation in Swiss Albino Mice” (J Med Chem, 2018).
The source made the active and inactive calls. The rule behind the calls is not given here.

Key:
[1] = target: Prostaglandin G/H synthase 1 (Homo sapiens, UniProt P23219); assay: Inhibition of COX1 in human whole blood assessed as A23187-stimulated TxB2 production at 1 uM pre-incubated for 60 mins before A23187 addition and measured after 30 mins by ELISA (reference value: 2 ng/ml); conditions: 0.5 h
Chain of Prostaglandin G/H synthase 1 (Homo sapiens, UniProt P23219) (P23219 whole entry): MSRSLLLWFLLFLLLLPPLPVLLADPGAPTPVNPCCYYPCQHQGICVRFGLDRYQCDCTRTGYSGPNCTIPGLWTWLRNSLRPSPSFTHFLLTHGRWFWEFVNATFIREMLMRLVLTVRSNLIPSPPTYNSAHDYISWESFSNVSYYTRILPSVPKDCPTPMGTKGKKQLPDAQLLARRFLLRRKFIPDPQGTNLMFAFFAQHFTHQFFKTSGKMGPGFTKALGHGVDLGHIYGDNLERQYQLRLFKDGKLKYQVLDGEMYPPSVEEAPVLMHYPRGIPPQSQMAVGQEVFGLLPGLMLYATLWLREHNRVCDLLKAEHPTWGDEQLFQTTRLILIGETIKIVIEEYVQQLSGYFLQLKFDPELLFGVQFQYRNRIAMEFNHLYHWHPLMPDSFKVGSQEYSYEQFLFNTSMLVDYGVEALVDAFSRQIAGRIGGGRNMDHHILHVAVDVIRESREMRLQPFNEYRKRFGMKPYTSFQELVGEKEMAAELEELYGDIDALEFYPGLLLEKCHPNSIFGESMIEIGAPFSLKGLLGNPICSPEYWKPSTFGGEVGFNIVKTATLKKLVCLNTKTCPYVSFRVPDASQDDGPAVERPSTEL

[2] = target: T1, Prostaglandin G/H synthase 1 (Ovis aries, UniProt P05979); assay: Inhibition of ovine COX1 pre-incubated for 10 mins before arachidonic acid addition and measured after 2 mins by EIA method
T1 sequence (P05979 whole entry): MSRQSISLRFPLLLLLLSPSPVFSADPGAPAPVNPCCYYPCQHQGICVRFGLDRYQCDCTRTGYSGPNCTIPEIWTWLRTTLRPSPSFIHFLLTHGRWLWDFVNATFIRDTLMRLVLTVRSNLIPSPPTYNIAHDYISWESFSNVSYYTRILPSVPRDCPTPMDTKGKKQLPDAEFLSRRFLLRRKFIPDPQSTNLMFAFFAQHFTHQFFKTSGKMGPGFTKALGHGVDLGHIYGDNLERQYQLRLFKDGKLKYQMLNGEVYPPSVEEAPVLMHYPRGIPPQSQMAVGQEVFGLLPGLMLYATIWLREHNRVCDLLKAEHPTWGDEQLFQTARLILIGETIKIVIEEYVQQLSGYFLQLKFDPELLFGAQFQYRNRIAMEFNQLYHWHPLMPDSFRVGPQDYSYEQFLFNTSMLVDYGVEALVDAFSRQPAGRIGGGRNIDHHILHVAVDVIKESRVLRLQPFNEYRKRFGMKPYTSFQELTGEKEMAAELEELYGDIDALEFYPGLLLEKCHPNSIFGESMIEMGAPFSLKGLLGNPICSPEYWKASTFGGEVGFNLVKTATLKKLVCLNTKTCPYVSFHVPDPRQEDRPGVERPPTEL

[3] = tested on: Mus musculus; assay: Analgesic activity in Swiss albino mouse assessed as inhibition of acetic acid-induced writhings at 10 mg/kg, ip measured 30 mins post acetic acid challenge; type: functional; conditions: 0.5 h
[4] = tested on: Mus musculus; assay: Analgesic activity in Swiss albino mouse assessed as inhibition of acetic acid-induced writhings at 5 mg/kg, ip measured 30 mins post acetic acid challenge; type: functional; conditions: 0.5 h
[5] = tested on: Mus musculus; assay: Anti-inflammatory activity in Swiss albino mouse model of carrageenan-induced-paw edema assessed as inhibition of paw edema at 10 mg/kg, ip after 3 hrs; type: functional
[6] = tested on: Mus musculus; assay: Analgesic activity in ip dosed Swiss albino mouse assessed as inhibition of acetic acid-induced writhings measured 30 mins post acetic acid challenge; type: functional; conditions: 0.5 h
[7] = tested on: Mus musculus; assay: Anti-inflammatory activity in Swiss albino mouse model of carrageenan-induced-paw edema assessed as inhibition of paw edema at 5 mg/kg, ip after 3 hrs; type: functional
[8] = tested on: Mus musculus; assay: Acute toxicity in Swiss albino mouse assessed as induction of behavioural impairment at 50 to 2000 mg/kg, po measured over 14 days post dose; type: organism-based; conditions: in vivo, 336 h
[9] = tested on: Mus musculus; assay: Analgesic activity in […] pre-treated Swiss albino mouse assessed as inhibition of acetic acid-induced writhings at 5 mg/kg, ip measured 30 mins post acetic acid challenge; type: functional, organism-based
[10] = tested on: Mus musculus; assay: Acute toxicity in Swiss albino mouse assessed as induction of renal lesions at 50 to 2000 mg/kg, po measured over 14 days post dose by H and E staining based microscopy; type: organism-based; conditions: in vivo, 336 h
[11] = tested on: Mus musculus; assay: Acute toxicity in Swiss albino mouse assessed as induction of increase in capsular space at 50 to 2000 mg/kg, po measured over 14 days post dose by H and E staining based microscopy; type: organism-based; conditions: in vivo, 336 h
[12] = tested on: Mus musculus; assay: Acute toxicity in Swiss albino mouse assessed as induction of mortality at 50 to 2000 mg/kg, po measured over 14 days post dose; type: organism-based; conditions: in vivo, 336 h
[13] = tested on: Mus musculus; assay: Acute toxicity in Swiss albino mouse assessed as induction of hepatic lesions at 50 to 2000 mg/kg, po measured over 14 days post dose by H and E staining based microscopy; type: organism-based; conditions: in vivo, 336 h
[14] = target: T2, Polyunsaturated fatty acid 5-lipoxygenase (Homo sapiens, UniProt P09917); assay: Inhibition of 5-LOX (unknown origin)
T2 sequence (P09917 whole entry): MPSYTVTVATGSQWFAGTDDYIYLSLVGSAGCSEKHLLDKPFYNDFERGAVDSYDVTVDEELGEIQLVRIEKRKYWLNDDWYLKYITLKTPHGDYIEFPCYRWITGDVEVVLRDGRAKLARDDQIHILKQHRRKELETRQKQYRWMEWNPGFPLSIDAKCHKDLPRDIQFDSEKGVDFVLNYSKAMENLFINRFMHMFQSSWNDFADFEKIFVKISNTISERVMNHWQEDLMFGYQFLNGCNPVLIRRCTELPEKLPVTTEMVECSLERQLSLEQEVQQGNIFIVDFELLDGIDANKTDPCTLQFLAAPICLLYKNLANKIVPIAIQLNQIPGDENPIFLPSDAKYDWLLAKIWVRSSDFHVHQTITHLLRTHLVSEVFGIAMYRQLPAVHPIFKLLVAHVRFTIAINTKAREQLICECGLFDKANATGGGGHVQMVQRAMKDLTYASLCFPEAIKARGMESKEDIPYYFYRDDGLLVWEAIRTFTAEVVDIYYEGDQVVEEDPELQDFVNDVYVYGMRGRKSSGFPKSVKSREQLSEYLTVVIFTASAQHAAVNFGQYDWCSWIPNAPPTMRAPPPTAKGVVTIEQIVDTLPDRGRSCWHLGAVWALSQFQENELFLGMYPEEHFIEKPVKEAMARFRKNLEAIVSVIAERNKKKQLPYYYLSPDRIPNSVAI

[15] = target: T3, Prostaglandin G/H synthase 2 (Homo sapiens) (UniProt P35354); conditions: 10 uM
T3 sequence (whole entry): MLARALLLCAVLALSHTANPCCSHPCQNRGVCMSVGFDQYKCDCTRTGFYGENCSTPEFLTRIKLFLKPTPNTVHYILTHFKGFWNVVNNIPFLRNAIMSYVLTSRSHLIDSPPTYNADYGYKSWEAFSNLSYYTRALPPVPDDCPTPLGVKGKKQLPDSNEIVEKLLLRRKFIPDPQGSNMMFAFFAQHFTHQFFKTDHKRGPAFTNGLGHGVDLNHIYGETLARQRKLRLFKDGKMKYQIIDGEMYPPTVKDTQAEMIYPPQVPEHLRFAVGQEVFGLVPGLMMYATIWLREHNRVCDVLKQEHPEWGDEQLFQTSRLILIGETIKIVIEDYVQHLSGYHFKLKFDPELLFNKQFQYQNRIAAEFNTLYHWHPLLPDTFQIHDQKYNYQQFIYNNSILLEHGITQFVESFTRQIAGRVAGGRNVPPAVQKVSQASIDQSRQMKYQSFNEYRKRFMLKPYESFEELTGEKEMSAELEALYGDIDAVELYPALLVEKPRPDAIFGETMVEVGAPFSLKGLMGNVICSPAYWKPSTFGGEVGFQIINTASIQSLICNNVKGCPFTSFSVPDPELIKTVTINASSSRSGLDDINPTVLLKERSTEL

[16] = tested on: Mus musculus; assay: Acute toxicity in Swiss albino mouse assessed as induction of myocardial lesions at 50 to 2000 mg/kg, po measured over 14 days post dose by H and E staining based microscopy; type: organism-based; conditions: in vivo, 336 h
[17] = tested on: Mus musculus; assay: Analgesic activity in substance P pre-treated Swiss albino mouse assessed as inhibition of acetic acid-induced writhings at 5 mg/kg, ip measured 30 mins post acetic acid challenge; type: functional, organism-based
[18] = tested on: Mus musculus; assay: Acute toxicity in Swiss albino mouse assessed as induction of congestion in renal tissue at 50 to 2000 mg/kg, po measured over 14 days post dose by H and E staining based microscopy; type: organism-based; conditions: in vivo, 336 h
[19] = target: T3, Prostaglandin G/H synthase 2 (Homo sapiens)
Description: Binding affinity to human COX2 assessed as binding constant by ITC

[20] = tested on: Mus musculus; assay: Acute toxicity in Swiss albino mouse assessed as induction of mesangium shrinkage at 50 to 2000 mg/kg, po measured over 14 days post dose by H and E staining based microscopy; type: organism-based; conditions: in vivo, 336 h

Structure (SMILES)	IC50 [2]	inhibition in vivo at 10 mg/kg [3]	inhibition in vivo at 5 mg/kg [4]	further results
O=C1COCCN1c1ccc(Nc2nc(Cl)nc(Nc3ccc(O)cc3)n2)cc1	10 µM	68%	56%	Activity [1]: 1.64 ng/mL
O=C1COCCN1c1ccc(Nc2nc(Cl)nc(NC3CCCCC3)n2)cc1	> 10 µM	81%	56%	–
O=C1COCCN1c1ccc(Nc2nc(Cl)nc(N3CCN(c4ccccc4)CC3)n2)cc1	> 10 µM	–	–	–
O=C1COCCN1c1ccc(Nc2nc(Nc3ccc(Cl)cc3)nc(N3CCOCC3)n2)cc1	5 µM	–	–	–
O=C1COCCN1c1ccc(Nc2nc(Cl)nc(Nc3ccc(Br)cc3)n2)cc1	50 µM	–	–	–
O=C(NCCOc1nc(Cl)nc(Nc2ccc(N3CCOCC3=O)cc2)n1)C1CCCN1C(=O)OCc1ccccc1 (configuration not stated)	> 10 µM	–	–	–
COC(=O)C(N)Cc1ccc(Oc2nc(Cl)nc(Nc3ccc(N4CCOCC4=O)cc3)n2)cc1 (configuration not stated)	> 10 µM	–	–	–
COc1ccc(Nc2nc(Cl)nc(Nc3ccc(N4CCOCC4=O)cc3)n2)cc1	> 10 µM	79%	47%	–
O=C1COCCN1c1ccc(Nc2nc(Cl)nc(NCc3ccccc3)n2)cc1	> 10 µM	–	–	–
O=C(NCCOc1nc(Cl)nc(Nc2ccc(N3CCOCC3=O)cc2)n1)c1ccc(Cl)s1	> 10 µM	–	–	–
[N-]=[N+]=NCCOc1nc(Cl)nc(Nc2ccc(N3CCOCC3=O)cc2)n1	> 10 µM	–	–	–
Cc1ccc(Nc2nc(Cl)nc(Nc3ccc(N4CCOCC4=O)cc3)n2)cc1	> 10 µM	–	–	–
O=C1COCCN1c1ccc(Nc2nc(Cl)nc(N3CCOCC3)n2)cc1	> 10 µM	–	–	–
COc1ccc2c(c1)c(CC(=O)O)c(C)n2C(=O)c1ccc(Cl)cc1 [INDOMETHACIN]	–	63%	–	inhibition in vivo at 10 mg/kg [5]: 30%
O=C1COCCN1c1ccc(Nc2nc(Cl)nc(OCCCl)n2)cc1	> 10 µM	–	–	–
NCCOc1nc(Cl)nc(Nc2ccc(N3CCOCC3=O)cc2)n1	> 10 µM	–	–	–
O=C(NCCOc1nc(Cl)nc(Nc2ccc(N3CCOCC3=O)cc2)n1)c1ccccc1F	> 10 µM	–	–	–
O=C1COCCN1c1ccc(Nc2nc(Cl)nc(Cl)n2)cc1	> 10 µM	–	–	–
O=C1COCCN1c1ccc(Nc2nc(Cl)nc(Nc3ccc(Cl)cc3)n2)cc1	> 10 µM	90.2%	79%	ED50 [6]: 1.9 mg/kg; Activity [1]: 1.85 ng/mL; inhibition in vivo at 5 mg/kg [7]: 28%
Nc1nc(Cl)nc(Nc2ccc(N3CCOCC3=O)cc2)n1	> 10 µM	74%	67%	Activity [1]: 1.68 ng/mL
Cc1ccc(-c2cc(C(F)(F)F)nn2-c2ccc(S(N)(=O)=O)cc2)cc1 [CELECOXIB]	–	–	62%	inhibition in vivo at 5 mg/kg [7]: 33%
O=C1COCCN1c1ccc(Nc2nc(Cl)nc(N3CCCC3)n2)cc1	10 µM	93%	87%	Activity [8]: Non-Toxic; inhibition [9]: Active; Activity [10]: Non-Toxic; Activity [11]: Toxic; Activity [12]: Non-Toxic; ED50 [6]: 2.2 mg/kg; Activity [13]: Non-Toxic; IC50 [14]: > 10 µM; Ka [15]: 2.54 ×10⁵ /M; Activity [16]: Non-Toxic; Activity [1]: 1.9 ng/mL; Activity [17]: inactive; Activity [18]: Toxic; inhibition in vivo at 5 mg/kg [7]: 38%; Ka [19]: 5.37 ×10⁵ /M; Activity [20]: Toxic
O=C1COCCN1c1ccc(Nc2nc(Cl)nc(Nc3ccccc3)n2)cc1	> 10 µM	83%	76%	Activity [1]: 1.7 ng/mL
Cc1ccc(S(=O)(=O)NCCOc2nc(Cl)nc(Nc3ccc(N4CCOCC4=O)cc3)n2)cc1	> 10 µM	–	–	–
